“And” between values parts separate entries of the source, which are not always exact repeats. Equal values may be shown once. “Also recorded” adds a separate entry of the source.
Legend:
[1] = target: central nicotinic receptors; details: read-out: Ki, displacement of [3H]nicotine binding; cited from earlier work
[2] = tested on: rat striatal slices preloaded with [3H]DA; experiment: Mecamylamine antagonism of lobeline-evoked [3H]overflow from rat striatal slices; type: cell-based; design: lobeline-evoked total [3H]overflow: unit not given here
[3] = target: T1, plasma membrane DA transporter (rat striatal synaptosomes) (Rattus norvegicus, UniProt P23977); experiment: [3H]DA uptake assay, striatal synaptosomal preparation; type: biochemical; details: read-out: IC50, inhibition of [3H]DA uptake into synaptosomes
T1 construct: from tissue; host or cells: rat striatum, synaptosomes
Description: The homogenate was centrifuged at 2,000×g for 10 min at 4° C. […] The final protein concentration was 400 μg/mL. The assay was performed in duplicate in a total volume of 500 μL. […] The incubation continued for 10 min at 34° C. The reaction was terminated by the addition of 3 mL cold assay buffer (without 1 mM catechol). Samples were rapidly filtered through a Whatman GF/B filter using a Brandel cell harvester (model MP-43 RS, Biochemical Research and Development Laboratories, Inc., Gaithersburg, Md.) and the filter was subsequently washed 3 times with 4 mL of cold assay buffer containing 1 mM catechol. Filters were previously soaked for 2 hrs in the cold assay buffer containing 1 mM catechol. […] Filters were placed into scintillation vials, 10 mL of scintillation cocktail was added and radioactivity was determined by scintillation spectrometry.
Inhibition of synaptosomal and vesicular [^3 H]DA uptake were analyzed by repeated-measures, one-way ANOVA, and by an iterative nonlinear least-squares curve-fitting program (GraphPAD-PRIZM; GraphPAD, San Diego, Calif.) to obtain IC50 values. Dunnett's post hoc test was used to compare treatment means to a single control mean. Also, Duncan's New Multiple Range Test or Fisher's LSD post hoc analysis were used to compare pairs of treatment means. […]

[4] = tested on: rat striatal synaptosomes; details: cited from earlier work
[5] = tested on: conditioned place preference in rats; details: rat, in vivo; cited from earlier work
anxiolytic activity = details: in vivo; cited from earlier work
monoamine oxidase = details: cited from earlier work
[6] = tested on: nicotine-evoked [3H]dopamine release from rat striatal slices; nicotinic receptors; experiment: Lobeline inhibition of nicotine-evoked [3H]DA release from rat striatal slices; type: cell-based; details: low concentrations
Description: Striatal slices were obtained from rat brain, preincubated with [^3 H]dopamine (0.1 μM) for 30 min and subsequently superfused with Kreb's buffer for 60 min.

[7] = tested on: tachycardia and hypertension; details: in vivo; cited from earlier work
[8] = tested on: rat striatal synaptic vesicles; experiment: [3H]DA release from striatal synaptic vesicles preloaded with [3H]DA; type: biochemical
Description: The homogenate was then centrifuged at 2,000×g for 10 min at 4° C. and the resulting supernatant was centrifuged at 10,000×g for 30 min at 4° C. Synaptosomes (buffy coat) were separated from the underlying mitochondria and cellular debris (reddish pellet) by gentle swirling in 2 mL of 0.32 M sucrose. The enriched synaptosome fraction (2.0 mL) was subjected to osmotic shock by addition of 7 mL distilled H2 0 and was homogenized with 5 up and down strokes of the TEFLON pestle. The osmolarity was restored by the addition of 900 μL of 0.25 M HEPES and 900 μL of 1.0 M neutral potassium-tatrate buffer (pH 7.5) followed by a 20 min centrifugation (20,000×g at 4° C.). The supernatant was then centrifuged for 60 min (55,000×g at 4° C.).
The final vesicle pellet from a pool of striata from three rats was resuspended in 3 mL of release assay buffer (in mM: 25 HEPES, 100 L-(+)-tartaric acid dipotassium salt, 0.05 EGTA, 0.10 EDTA, 2 Mg^2+ -ATP, and 1.7 ascorbic acid, pH 7.4) and then incubated with [^3 H]DA (0.3 μM) for 8 min at 37° C. […] [^3 H]DA efflux represents the net result of events, i.e., release and reuptake. […] The reaction was terminated by addition of 2.5 mL of ice-cold assay buffer containing 2 mM MgSO4. Samples were rapidly filtered through Whatman GF/F filters using the Brandel cell harvester.
The amount of drug-induced [^3 H]DA release from synaptic vesicles was calculated by subtracting the amount of tritium remaining in the drug-exposed samples from that remaining in the control samples (in the absence of drug). The amount of drug-induced [^3 H]DA release was then divided by the amount of tritium remaining in the control samples and was expressed as a percentage of control.
Concentration-response and kinetic data were analyzed by repeated-measures one-way ANOVA and between-group one-way ANOVA, respectively. When appropriate, Fisher's least significant difference post hoc test was used to determine significant differences between treatment means. IC50 and EC50 values were obtained by an iterative nonlinear least-squarescurve-fitting program (GraphPAD-PRIZM: GraphPAD, San Diego, Calif., U.S.A.) for one-site competition and sigmoidal concentration response, respectively. The t1/2 was obtained by an iterative nonlinear least-squares curve-fitting program for one-phase decay. KD and Bmax values were obtained by Scatchard analysis using an iterative linear least-squares curve-fitting program.

T1 sequence (P23977 whole entry): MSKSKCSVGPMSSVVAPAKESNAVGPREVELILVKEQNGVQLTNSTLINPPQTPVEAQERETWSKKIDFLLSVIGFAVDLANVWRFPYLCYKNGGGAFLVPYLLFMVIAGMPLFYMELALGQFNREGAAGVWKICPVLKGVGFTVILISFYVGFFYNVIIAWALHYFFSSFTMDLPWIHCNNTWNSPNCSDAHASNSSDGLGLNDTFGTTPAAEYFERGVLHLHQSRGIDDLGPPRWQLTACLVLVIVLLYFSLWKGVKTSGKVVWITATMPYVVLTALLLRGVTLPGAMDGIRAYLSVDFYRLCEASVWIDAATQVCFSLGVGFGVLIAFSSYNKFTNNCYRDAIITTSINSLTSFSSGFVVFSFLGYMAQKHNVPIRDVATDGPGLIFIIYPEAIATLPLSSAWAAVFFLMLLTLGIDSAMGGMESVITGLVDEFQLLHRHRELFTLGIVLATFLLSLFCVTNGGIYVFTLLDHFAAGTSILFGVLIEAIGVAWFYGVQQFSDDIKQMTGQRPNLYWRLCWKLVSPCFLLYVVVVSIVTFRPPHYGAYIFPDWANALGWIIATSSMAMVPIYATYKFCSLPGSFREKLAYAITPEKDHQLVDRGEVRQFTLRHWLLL

CN1[C@@H](CC(=O)c2ccccc2)CCC[C@H]1C[C@H](O)c1ccccc1 [Lobeline, 2-[G-(β-hydroxyphenethyl)-1-methyl-2-piperidyl]-acetophenone]
Ki [1]: 5 to 30 nM
lobeline-evoked total [3H]overflow ([2]; lobeline 0.1 μM, mecamylamine 0 μM): 0.6 ± 0.4
lobeline-evoked total [3H]overflow ([2]; lobeline 0.1 μM, mecamylamine 1 μM): 0.9 ± 0.5
lobeline-evoked total [3H]overflow ([2]; lobeline 0.1 μM, mecamylamine 10 μM): 0.8 ± 0.3
lobeline-evoked total [3H]overflow ([2]; lobeline 0.1 μM, mecamylamine 100 μM): 0.5 ± 0.4
lobeline-evoked total [3H]overflow ([2]; lobeline 1 μM, mecamylamine 0 μM): 2.0 ± 0.6
lobeline-evoked total [3H]overflow ([2]; lobeline 1 μM, mecamylamine 1 μM): 4.9 ± 1.8
lobeline-evoked total [3H]overflow ([2]; lobeline 1 μM, mecamylamine 10 μM): 2.4 ± 0.5
lobeline-evoked total [3H]overflow ([2]; lobeline 1 μM, mecamylamine 100 μM): 0.7 ± 0.1
lobeline-evoked total [3H]overflow ([2]; lobeline 3 μM, mecamylamine 0 μM): 10.3 ± 0.8
lobeline-evoked total [3H]overflow ([2]; lobeline 3 μM, mecamylamine 1 μM): 10.8 ± 1.4
lobeline-evoked total [3H]overflow ([2]; lobeline 3 μM, mecamylamine 10 μM): 8.2 ± 1.5
lobeline-evoked total [3H]overflow ([2]; lobeline 3 μM, mecamylamine 100 μM): 6.5 ± 0.9
lobeline-evoked total [3H]overflow ([2]; lobeline 10 μM, mecamylamine 0 μM): 31.9 ± 2.2
lobeline-evoked total [3H]overflow ([2]; lobeline 10 μM, mecamylamine 1 μM): 32.5 ± 1.0
lobeline-evoked total [3H]overflow ([2]; lobeline 10 μM, mecamylamine 10 μM): 41.0 ± 6.2
lobeline-evoked total [3H]overflow ([2]; lobeline 10 μM, mecamylamine 100 μM): 20.0 ± 2.0
lobeline-evoked total [3H]overflow ([2]; lobeline 100 μM, mecamylamine 0 μM): 185.0 ± 12
lobeline-evoked total [3H]overflow ([2]; lobeline 100 μM, mecamylamine 1 μM): 180.0 ± 47.6
lobeline-evoked total [3H]overflow ([2]; lobeline 100 μM, mecamylamine 10 μM): 179.5 ± 12.2
lobeline-evoked total [3H]overflow ([2]; lobeline 100 μM, mecamylamine 100 μM): 160.4 ± 30.2
inhibition of lobeline-evoked [3H]overflow by mecamylamine ([2]; mecamylamine 1-100 μM, lobeline 0.1-100 μM): not inhibited by mecamylamine
IC50 [3]: 80 ± 12 µM
DA release from superfused striatal synaptosomes [4]: increase DA release
conditioned place preference [5]: does not produce conditioned place preference; also recorded: does not increase locomotor activity (Stolerman et al., 1995) or produce conditioned place preference
anxiolytic activity (anxiolytic activity): anxiolytic activity
inhibition of monoamine oxidase (monoamine oxidase): does not inhibit monoamine oxidase
concentrations inhibiting nicotine-evoked DA release [6]: 0.1 to 1 µM
cardiovascular effects [7]: tachycardia and hypertension
lowest concentration to evoke [3H]DA release from vesicles ([8]; 8 min, 37° C.): 10 µM
EC50 ([8]; 8 min, 37° C., read-out: EC50, evoked [3H]DA release from synaptic vesicles): 25.3 µM and 25 µM
t1/2 of [3H]DA efflux from vesicles ([8]; drug at 10 times the EC50): 1.58 ± 0.09 min
